Reference: patent US20180028526A1, “NALMEFENE FOR REDUCTION OF ALCOHOL CONSUMPTION IN SPECIFIC TARGET POPULATIONS” (H. Lundbeck A/S, priority 2012, published 2018)

Legend:
alcohol dependence [1] = conditions: 5, 20 and 40 mg daily doses; Anton et al. 2004; cited from earlier work
alcohol dependence [2] = conditions: 20 to 80 mg daily oral dosing; double-blind, placebo-controlled; Mason et al. 1999; cited from earlier work
[3] = test system: patients with alcohol dependence; experiment: Studies 12014A, 12023A and 12013A taken together (statements on all three studies); format: in vivo, human; conditions: for Difference between nalmefene and placebo in HDDs and TAC, compared with total study population: all three studies
Description: The efficacy of nalmefene in the reduction of alcohol consumption in patients with alcohol dependence (DSM-IV) has been evaluated in two efficacy studies (Study 12014A and Study 12023A) and one safety study (Study 12013A) as described in the examples. All three studies were randomized, double blind, parallel-group and placebo-controlled.
The studies included outpatients, aged […], with a primary diagnosis of alcohol dependence. A patient was eligible for participation in the study if, in the 4 weeks preceding the Screening Visit (Baseline period), he/she had >6 HDDs, at least a medium DRL (calculated as mean daily alcohol consumption in g/day i.e. >40 g/day for men and >20 g/day for women calculated as mean daily alcohol consumption over the 4 week period preceding the screening visit), and ≦14 consecutive abstinent days. The timeline followback (TLFB) method was used to obtain estimates of the patient's daily drinking.
At the initial visit (screening visit), the patients' clinical status, social situation, and alcohol consumption pattern were evaluated. After a 1- to 2-week observation period the drinking risk level was re-assessed by calculating mean daily alcohol consumption in g/day over the 1- to 2-week observation period, and treatment with nalmefene was initiated together with counseling with focus on motivating the patients to adhere to the treatment and to change their drinking behavior.
The efficacy of nalmefene was measured using two co-primary endpoints: the change in the monthly number of heavy drinking days (HDDs) and the change in the mean daily total alcohol consumption (TAC) per month (=28 days).
The efficacy of nalmefene on the reduction of alcohol consumption in patients with alcohol dependence (DSM-IV) was evaluated in two efficacy studies (Study 12014A and Study 12023A). Both studies were randomised, double blind, two-parallel group, placebo controlled, and after 6 months of treatment, patients receiving nalmefene were re-randomised to receive either placebo or nalmefene in a 1 month run out period. The efficacy of nalmefene was also evaluated in a randomised, double blind, two parallel group, placebo controlled 1 year safety study (Study 12013A). The studies included 1941 patients, 1144 of whom were treated with nalmefene 18 mg in an as-needed dosing regimen.
The efficacy of nalmefene was measured using two co-primary endpoints: the change in the monthly number of heavy drinking days (HDDs) and the change in the mean daily total alcohol consumption (TAC) per month (=28 days). A HDD was defined as a day with a consumption ≧60 g alcohol for men and 40 g for women. The change in HDD and TAC over time in patients treated with nalmefene or placebo is furthermore reflected in FIGS. 1a and 1b-12a and 12b.

alcohol dependence [4] = conditions: 20 mg taken when the patient experienced a craving for alcohol; Karhuvaara et al. 2007; cited from earlier work

C=C1CC[C@@]2(O)[C@H]3Cc4ccc(O)c5c4[C@@]2(CCN3CC2CC2)[C@H]1O5 [nalmefene, 17-(cyclopropylmethyl)-4,5-alpha-epoxy-6-methylenemorphinan-3,14-diol]
Superiority over placebo in the management of alcohol dependence (alcohol dependence [1]): no evidence of superiority
Effect in the management of alcohol dependence (alcohol dependence [2]): good effect
Difference between nalmefene and placebo in HDDs and TAC, compared with total study population ([3]; patients excluding ERs): more pronounced
Difference between nalmefene and placebo in HDDs and TAC, compared with total study population ([3]; patients with High DRL at baseline): more pronounced
Difference between nalmefene and placebo in HDDs and TAC, compared with total study population ([3]; patients with High DRL at baseline and randomization): more pronounced
Reducing the number of HDDs and TAC versus placebo ([3]; month 6, two 6 month efficacy studies and 12 month safety study, total study population): superior to placebo
Effect over placebo in the management of alcohol dependence (alcohol dependence [4]): good effect
